Source: paper PMC12454493, “Insight on novel sulfamoylphenyl pyrazole derivatives as anticancer carbonic anhydrase inhibitors” (Molecular Diversity, 2024)
“And” between values parts separate entries of the source, which are not always exact repeats. Equal entries are not always repeated.

Legend:
PC-3 = assay: NCI-60 one-dose SRB screen (Prostate Cancer); format: cell-based; settings: Homo sapiens, single dose 10 µM, 48 h, read-out: Growth inhibition percent (GI %)
DU-145 = assay: NCI-60 one-dose SRB screen (Prostate Cancer); format: cell-based; settings: Homo sapiens, single dose 10 µM, 48 h, read-out: Growth inhibition percent (GI %)
hCA IX = hCA IX (Homo sapiens, UniProt Q16790); assay: CA inhibitory activity, spectrophotometric p-NPA assay; format: biochemical; settings: for IC50: p-NPA substrate, pH 7.5, 25 °C, triplicate, read-out: IC50 (µM) ± SD hCA IX
NCI-H322M = assay: NCI-60 one-dose SRB screen (Non-Small Cell Lung Cancer); format: cell-based; settings: Homo sapiens, single dose 10 µM, 48 h, read-out: Growth inhibition percent (GI %)
HOP-92 = assay: as above; format: cell-based; settings: Homo sapiens, single dose 10 µM, 48 h, read-out: Growth inhibition percent (GI %)
NCI-H460 = assay: as above; format: cell-based; settings: Homo sapiens, single dose 10 µM, 48 h, read-out: Growth inhibition percent (GI %)
HOP-62 = assay: as above; format: cell-based; settings: Homo sapiens, single dose 10 µM, 48 h, read-out: Growth inhibition percent (GI %)
NCI-H522 = assay: as above; format: cell-based; settings: Homo sapiens, single dose 10 µM, 48 h, read-out: Growth inhibition percent (GI %)
EKVX = assay: as above; format: cell-based; settings: Homo sapiens, single dose 10 µM, 48 h, read-out: Growth inhibition percent (GI %)
NCI-H226 = assay: as above; format: cell-based; settings: Homo sapiens, single dose 10 µM, 48 h, read-out: Growth inhibition percent (GI %)
NCI-H23 = assay: as above; format: cell-based; settings: Homo sapiens, single dose 10 µM, 48 h, read-out: Growth inhibition percent (GI %)
A549/ATCC = assay: as above; format: cell-based; settings: Homo sapiens, single dose 10 µM, 48 h, read-out: Growth inhibition percent (GI %)
OVCAR-5 = assay: NCI-60 one-dose SRB screen (Ovarian cancer); format: cell-based; settings: Homo sapiens, single dose 10 µM, 48 h, read-out: Growth inhibition percent (GI %)
SK-OV-3 = assay: NCI-60 one-dose SRB screen (Ovarian cancer); format: cell-based; settings: Homo sapiens, single dose 10 µM, 48 h, read-out: Growth inhibition percent (GI %)
OVCAR-3 = assay: NCI-60 one-dose SRB screen (Ovarian cancer); format: cell-based; settings: Homo sapiens, single dose 10 µM, 48 h, read-out: Growth inhibition percent (GI %)
OVCAR-4 = assay: NCI-60 one-dose SRB screen (Ovarian cancer); format: cell-based; settings: Homo sapiens, single dose 10 µM, 48 h, read-out: Growth inhibition percent (GI %)
IGROV1 = assay: NCI-60 one-dose SRB screen (Ovarian cancer); format: cell-based; settings: Homo sapiens, IGROV-1, single dose 10 µM, 48 h, read-out: Growth inhibition percent (GI %)
NCI/ADR-RES = assay: NCI-60 one-dose SRB screen (Ovarian cancer); format: cell-based; settings: Homo sapiens, single dose 10 µM, 48 h, read-out: Growth inhibition percent (GI %)
OVCAR-8 = assay: NCI-60 one-dose SRB screen (Ovarian cancer); format: cell-based; settings: Homo sapiens, single dose 10 µM, 48 h, read-out: Growth inhibition percent (GI %)
M14 = assay: NCI-60 one-dose SRB screen (Melanoma); format: cell-based; settings: Homo sapiens, single dose 10 µM, 48 h, read-out: Growth inhibition percent (GI %)
SK-MEL-5 = assay: NCI-60 one-dose SRB screen (Melanoma); format: cell-based; settings: Homo sapiens, single dose 10 µM, 48 h, read-out: Growth inhibition percent (GI %)
UACC-257 = assay: NCI-60 one-dose SRB screen (Melanoma); format: cell-based; settings: Homo sapiens, single dose 10 µM, 48 h, read-out: Growth inhibition percent (GI %)
MDA-MB-435 = assay: NCI-60 one-dose SRB screen (Melanoma); format: cell-based; settings: Homo sapiens, single dose 10 µM, 48 h, read-out: Growth inhibition percent (GI %)
MALME-3M = assay: NCI-60 one-dose SRB screen (Melanoma); format: cell-based; settings: Homo sapiens, single dose 10 µM, 48 h, read-out: Growth inhibition percent (GI %)
SK-MEL-28 = assay: NCI-60 one-dose SRB screen (Melanoma); format: cell-based; settings: Homo sapiens, single dose 10 µM, 48 h, read-out: Growth inhibition percent (GI %)
SK-MEL-2 = assay: NCI-60 one-dose SRB screen (Melanoma); format: cell-based; settings: Homo sapiens, single dose 10 µM, 48 h, read-out: Growth inhibition percent (GI %)
LOX IMVI = assay: NCI-60 one-dose SRB screen (Melanoma); format: cell-based; settings: Homo sapiens, single dose 10 µM, 48 h, read-out: Growth inhibition percent (GI %)
UACC-62 = assay: NCI-60 one-dose SRB screen (Melanoma); format: cell-based; settings: Homo sapiens, single dose 10 µM, 48 h, read-out: Growth inhibition percent (GI %)
K-562 = assay: NCI-60 one-dose SRB screen (Leukemia); format: cell-based; settings: Homo sapiens, K562, single dose 10 µM, 48 h, read-out: Growth inhibition percent (GI %)
MOLT-4 = assay: NCI-60 one-dose SRB screen (Leukemia); format: cell-based; settings: Homo sapiens, single dose 10 µM, 48 h, read-out: Growth inhibition percent (GI %)
CCRF-CEM = assay: NCI-60 one-dose SRB screen (Leukemia); format: cell-based; settings: Homo sapiens, single dose 10 µM, 48 h, read-out: Growth inhibition percent (GI %)
RPMI-8226 = assay: NCI-60 one-dose SRB screen (Leukemia); format: cell-based; settings: Homo sapiens, single dose 10 µM, 48 h, read-out: Growth inhibition percent (GI %)
HL-60(TB) = assay: NCI-60 one-dose SRB screen (Leukemia); format: cell-based; settings: Homo sapiens, single dose 10 µM, 48 h, read-out: Growth inhibition percent (GI %)
MCF-7 = assay: NCI-60 one-dose SRB screen (Breast Cancer); format: cell-based; settings: Homo sapiens, MCF7, single dose 10 µM, 48 h, read-out: Growth inhibition percent (GI %)
MDA-MB-468 = assay: NCI-60 one-dose SRB screen (Breast Cancer); format: cell-based; settings: Homo sapiens, single dose 10 µM, 48 h, read-out: Growth inhibition percent (GI %)
HS 578T = assay: NCI-60 one-dose SRB screen (Breast Cancer); format: cell-based; settings: Homo sapiens, single dose 10 µM, 48 h, read-out: Growth inhibition percent (GI %)
BT-549 = assay: NCI-60 one-dose SRB screen (Breast Cancer); format: cell-based; settings: Homo sapiens, single dose 10 µM, 48 h, read-out: Growth inhibition percent (GI %)
T-47D = assay: NCI-60 one-dose SRB screen (Breast Cancer); format: cell-based; settings: Homo sapiens, T47D, single dose 10 µM, 48 h, read-out: Growth inhibition percent (GI %)
MDA-MB-231/ATCC = assay: NCI-60 one-dose SRB screen (Breast Cancer); format: cell-based; settings: Homo sapiens, single dose 10 µM, 48 h, read-out: Growth inhibition percent (GI %)
SF-295 = assay: NCI-60 one-dose SRB screen (CNS Cancer); format: cell-based; settings: Homo sapiens, single dose 10 µM, 48 h, read-out: Growth inhibition percent (GI %)
SNB-19 = assay: NCI-60 one-dose SRB screen (CNS Cancer); format: cell-based; settings: Homo sapiens, single dose 10 µM, 48 h, read-out: Growth inhibition percent (GI %)
SF-268 = assay: NCI-60 one-dose SRB screen (CNS Cancer); format: cell-based; settings: Homo sapiens, single dose 10 µM, 48 h, read-out: Growth inhibition percent (GI %)
SF-539 = assay: NCI-60 one-dose SRB screen (CNS Cancer); format: cell-based; settings: Homo sapiens, single dose 10 µM, 48 h, read-out: Growth inhibition percent (GI %)
U251 = assay: NCI-60 one-dose SRB screen (CNS Cancer); format: cell-based; settings: Homo sapiens, U-251, single dose 10 µM, 48 h, read-out: Growth inhibition percent (GI %)
SNB-75 = assay: NCI-60 one-dose SRB screen (CNS Cancer); format: cell-based; settings: Homo sapiens, single dose 10 µM, 48 h, read-out: Growth inhibition percent (GI %)

Which results are given for `CS(=O)(=O)c1ccc(-c2nn(-c3ccc(S(N)(=O)=O)cc3)cc2C(=O)OCC(=O)Nc2ccc(S(N)(=O)=O)cc2)cc1` [Compound 4e, 2-Oxo-2-[(4-sulfamoylphenyl)amino] ethyl 3-(4-(methylsulfonyl)phenyl)-1-(4-sulfamoylphenyl)-1H-pyrazole-4-carboxylate]?
inhibition at 10 µM (PC-3): < 5%; inhibition at 10 µM (DU-145): < 5%; Ki (hCA IX): 72 nM; IC50 (hCA IX): 0.07 µM and 0.072 µM; melting point: 132 to 135 °C; inhibition at 10 µM (NCI-H322M): < 5%; inhibition at 10 µM (HOP-92): < 5%; inhibition at 10 µM (NCI-H460): < 5%; inhibition at 10 µM (HOP-62): < 5%; inhibition at 10 µM (NCI-H522): 23.1%; inhibition at 10 µM (EKVX): < 5%; inhibition at 10 µM (NCI-H226): < 5%; inhibition at 10 µM (NCI-H23): < 5%; inhibition at 10 µM (A549/ATCC): 6.92%; inhibition at 10 µM (OVCAR-5): < 5%; inhibition at 10 µM (SK-OV-3): < 5%; inhibition at 10 µM (OVCAR-3): < 5%; inhibition at 10 µM (OVCAR-4): < 5%; inhibition at 10 µM (IGROV1): < 5%; inhibition at 10 µM (NCI/ADR-RES): < 5%; inhibition at 10 µM (OVCAR-8): < 5%; inhibition at 10 µM (M14): < 5%; inhibition at 10 µM (SK-MEL-5): < 5%; inhibition at 10 µM (UACC-257): 6.07%; inhibition at 10 µM (MDA-MB-435): < 5%; inhibition at 10 µM (MALME-3M): < 5%; inhibition at 10 µM (SK-MEL-28): < 5%; inhibition at 10 µM (SK-MEL-2): < 5%; inhibition at 10 µM (LOX IMVI): < 5%; inhibition at 10 µM (UACC-62): < 5%; inhibition at 10 µM (K-562): < 5%; inhibition at 10 µM (MOLT-4): < 5%; inhibition at 10 µM (CCRF-CEM): < 5%; inhibition at 10 µM (RPMI-8226): < 5%; inhibition at 10 µM (HL-60(TB)): < 5%; inhibition at 10 µM (MCF-7): < 5%; inhibition at 10 µM (MDA-MB-468): < 5%; inhibition at 10 µM (HS 578T): < 5%; inhibition at 10 µM (BT-549): < 5%; inhibition at 10 µM (T-47D): < 5%; inhibition at 10 µM (MDA-MB-231/ATCC): < 5%; inhibition at 10 µM (SF-295): < 5%; inhibition at 10 µM (SNB-19): < 5%; inhibition at 10 µM (SF-268): < 5%; inhibition at 10 µM (SF-539): < 5%; inhibition at 10 µM (U251): < 5%; inhibition at 10 µM (SNB-75): < 5%

What does the source list for `COc1ccc(-c2nn(-c3ccc(S(N)(=O)=O)cc3)cc2C(=O)OCC(=O)Nc2nnc(S(N)(=O)=O)s2)cc1` [Compound 6c, 2-Oxo-2-[(5-sulfamoyl-1,3,4-thiadiazol-2-yl)amino] ethyl 3-(4-methoxyphenyl)-1-(4-sulfamoylphenyl)-1H-pyrazole-4-carboxylate]?
inhibition at 10 µM (PC-3): < 5%; inhibition at 10 µM (DU-145): < 5%; Ki (hCA IX): 73 nM; IC50 (hCA IX): 0.07 µM and 0.073 µM; melting point: 240 to 241 °C; inhibition at 10 µM (NCI-H322M): < 5%; inhibition at 10 µM (HOP-92): 27.4%; inhibition at 10 µM (NCI-H460): < 5%; inhibition at 10 µM (HOP-62): < 5%; inhibition at 10 µM (NCI-H522): 5.91%; inhibition at 10 µM (EKVX): 11.2%; inhibition at 10 µM (NCI-H226): 8.69%; inhibition at 10 µM (NCI-H23): < 5%; inhibition at 10 µM (A549/ATCC): < 5%; inhibition at 10 µM (OVCAR-5): < 5%; inhibition at 10 µM (SK-OV-3): < 5%; inhibition at 10 µM (OVCAR-3): < 5%; inhibition at 10 µM (OVCAR-4): < 5%; inhibition at 10 µM (IGROV1): < 5%; inhibition at 10 µM (NCI/ADR-RES): < 5%; inhibition at 10 µM (OVCAR-8): < 5%; inhibition at 10 µM (M14): < 5%; inhibition at 10 µM (SK-MEL-5): < 5%; inhibition at 10 µM (UACC-257): < 5%; inhibition at 10 µM (MDA-MB-435): < 5%; inhibition at 10 µM (MALME-3M): 5.67%; inhibition at 10 µM (SK-MEL-28): < 5%; inhibition at 10 µM (SK-MEL-2): < 5%; inhibition at 10 µM (LOX IMVI): 8.56%; inhibition at 10 µM (UACC-62): 9.09%; inhibition at 10 µM (K-562): < 5%; inhibition at 10 µM (MOLT-4): < 5%; inhibition at 10 µM (CCRF-CEM): < 5%; inhibition at 10 µM (RPMI-8226): < 5%; inhibition at 10 µM (HL-60(TB)): < 5%; inhibition at 10 µM (MCF-7): 15.8%; inhibition at 10 µM (MDA-MB-468): 7.76%; inhibition at 10 µM (HS 578T): 12.8%; inhibition at 10 µM (BT-549): < 5%; inhibition at 10 µM (T-47D): < 5%; inhibition at 10 µM (MDA-MB-231/ATCC): < 5%; inhibition at 10 µM (SF-295): < 5%; inhibition at 10 µM (SNB-19): < 5%; inhibition at 10 µM (SF-268): < 5%; inhibition at 10 µM (SF-539): < 5%; inhibition at 10 µM (U251): < 5%; inhibition at 10 µM (SNB-75): 13.4%
